Several values for one entry are separate records, joined by “and”; a condition that tells them apart may be missing. Equal values may be shown once. Inconclusive results and toxic doses are left out. Cut-off read from the data, not from the text of the source: active = T/C of 150% or more; inactive = T/C below 125%.
System: L1210 leukemia ip in BDF1 mice, survival T/C
Test: NCI In Vivo Anticancer Drug Screen. Data for tumor model L1210 Leukemia (intraperitoneal) in B6D2F1 (BDF1) mice
Details: endpoint: mean survival time, higher = longer survival
Summary of the method: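 Each compound was tested against a transplantable tumor grown in mice. The endpoint was survival, with treated animals benchmarked against vehicle controls as a simple ratio.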

[1] = dose: 12.5 mg/kg/injection, schedule: Q04DX003 (ip), vehicle: saline with Tween-80
[2] = dose: 25.0 mg/kg/injection, schedule: Q04DX003 (ip), vehicle: saline with Tween-80
[3] = dose: 50.0 mg/kg/injection, schedule: Q04DX003 (ip), vehicle: saline with Tween-80
[4] = dose: 100.0 mg/kg/injection, schedule: Q01DX009 (ip), vehicle: Klucel (hydroxypropylcellulose) (HPC)
[5] = dose: 100.0 mg/kg/injection, schedule: Q01DX001 (ip), vehicle: saline
[6] = dose: 100.0 mg/kg/injection, schedule: Q04DX002 (ip), vehicle: saline with Tween-80
[7] = dose: 200.0 mg/kg/injection, schedule: Q01DX001 (ip), vehicle: saline
[8] = dose: 200.0 mg/kg/injection, schedule: Q04DX002 (ip), vehicle: saline with Tween-80
[9] = dose: 400.0 mg/kg/injection, schedule: Q01DX001 (ip), vehicle: saline
[10] = dose: 50.0 mg/kg/injection, schedule: Q01DX009 (ip), vehicle: saline
[11] = dose: 25.0 mg/kg/injection, schedule: Q01DX009 (ip), vehicle: saline with Tween-80
[12] = dose: 50.0 mg/kg/injection, schedule: Q01DX009 (ip), vehicle: saline with Tween-80
[13] = dose: 100.0 mg/kg/injection, schedule: Q01DX001 (ip), vehicle: Klucel (hydroxypropylcellulose) (HPC)
[14] = dose: 200.0 mg/kg/injection, schedule: Q01DX001 (ip), vehicle: Klucel (hydroxypropylcellulose) (HPC)
[15] = dose: 400.0 mg/kg/injection, schedule: Q01DX001 (ip), vehicle: Klucel (hydroxypropylcellulose) (HPC)
[16] = dose: 100.0 mg/kg/injection, schedule: Q04DX003 (ip), vehicle: Klucel (hydroxypropylcellulose) (HPC)
[17] = dose: 200.0 mg/kg/injection, schedule: Q04DX003 (ip), vehicle: Klucel (hydroxypropylcellulose) (HPC)
[18] = dose: 400.0 mg/kg/injection, schedule: Q04DX003 (ip), vehicle: Klucel (hydroxypropylcellulose) (HPC)

Measured: T/C

COc1ccc(C(Br)C(Br)C(=O)c2ccc3c(c2)OCO3)cc1OC (stereo not drawn)
inactive: dose: 100.0 mg/kg/injection, schedule: Q04DX003 (ip), vehicle: saline 92 % of control | dose: 200.0 mg/kg/injection, schedule: Q04DX003 (ip), vehicle: saline 89 % of control | dose: 400.0 mg/kg/injection, schedule: Q04DX003 (ip), vehicle: saline 98 % of control

COc1ccccc1-n1c(O)c(N=Nc2ccccc2C)c(=O)n(-c2ccc(C)cc2)c1=S
inactive: dose: 37.5 mg/kg/injection, schedule: Q01DX001 (ip), vehicle: Klucel (hydroxypropylcellulose) (HPC) 102 % of control | dose: 75.0 mg/kg/injection, schedule: Q01DX001 (ip), vehicle: Klucel (hydroxypropylcellulose) (HPC) 99 % of control | dose: 150.0 mg/kg/injection, schedule: Q01DX001 (ip), vehicle: Klucel (hydroxypropylcellulose) (HPC) 89 % of control

CC1(C)N=C(N)N=C(N)N1c1ccc(CCc2ccccc2)cc1
inactive: dose: 12.5 mg/kg/injection, schedule: Q01DX009 (ip), vehicle: Klucel (hydroxypropylcellulose) (HPC) 97 % of control | dose: 12.5 mg/kg/injection, schedule: Q04DX003 (ip), vehicle: Klucel (hydroxypropylcellulose) (HPC) 98 % of control | [1] 101 % of control | dose: 25.0 mg/kg/injection, schedule: Q01DX009 (ip), vehicle: Klucel (hydroxypropylcellulose) (HPC) 93 % of control | dose: 25.0 mg/kg/injection, schedule: Q04DX003 (ip), vehicle: Klucel (hydroxypropylcellulose) (HPC) 104 % of control | [2] 102 % of control | dose: 50.0 mg/kg/injection, schedule: Q04DX003 (ip), vehicle: Klucel (hydroxypropylcellulose) (HPC) 93 % of control | [3] 104 % of control

O=C(O)CC12CCCCC1CCCC2 (stereo not drawn)
inactive: dose: 100.0 mg/kg/injection, schedule: Q01DX009 (ip), vehicle: acetone 94 % of control | dose: 200.0 mg/kg/injection, schedule: Q01DX009 (ip), vehicle: acetone 100 % of control | dose: 400.0 mg/kg/injection, schedule: Q01DX009 (ip), vehicle: acetone 94 % of control

COc1cc(NCCCNc2c3ccc(Cl)cc3nc3ccc(OC)cc23)c2ncccc2c1
inactive: [4] 100 % of control

Nc1ncnc2c1ncn2C1OC(COS(N)(=O)=O)C(O)C1O (stereo not drawn)
inactive: dose: 0.5 mg/kg/injection, schedule: Q01DX001 (ip), vehicle: saline 113 % of control

C[C@]12CCC(=O)C=C1CC[C@H]1[C@@H]3CC[C@](O)(C(=O)CO)[C@@]3(C)C[C@H](O)[C@@]12F
inactive: dose: 50.0 mg/kg/injection, schedule: Q01DX001 (sc), vehicle: steriod suspending solution 103 % of control | dose: 100.0 mg/kg/injection, schedule: Q01DX001 (sc), vehicle: steriod suspending solution 100 % of control | dose: 200.0 mg/kg/injection, schedule: Q01DX001 (sc), vehicle: steriod suspending solution 105 % of control | dose: 400.0 mg/kg/injection, schedule: Q01DX001 (sc), vehicle: steriod suspending solution 105 % of control

COc1cccc(N=Nc2c(N)nc(N)nc2N)c1
inactive: dose: 75.0 mg/kg/injection, schedule: Q01DX001 (ip), vehicle: carboxymethylcellulose (CMC) 104 % of control | dose: 150.0 mg/kg/injection, schedule: Q01DX001 (ip), vehicle: carboxymethylcellulose (CMC) 100 % of control | dose: 300.0 mg/kg/injection, schedule: Q01DX001 (ip), vehicle: carboxymethylcellulose (CMC) 109 % of control

CCOC(=O)CCC(C)C(C)=O (stereo not drawn)
inactive: dose: 50.0 mg/kg/injection, schedule: Q04DX002 (ip), vehicle: saline with Tween-80 108 % of control | [5] 109 % of control | [6] 103 % of control | [7] 98 % of control | [8] 108 % of control | [9] 98 % of control

CCOC(=O)/C=C(\CC(=O)OCC)Nc1ccc(OC)cc1
inactive: [10] 89 % of control | dose: 100.0 mg/kg/injection, schedule: Q01DX009 (ip), vehicle: saline 91 % of control | dose: 100.0 mg/kg/injection, schedule: Q04DX003 (ip), vehicle: acetone 91 % of control | dose: 200.0 mg/kg/injection, schedule: Q04DX003 (ip), vehicle: acetone 100 % of control | dose: 400.0 mg/kg/injection, schedule: Q04DX003 (ip), vehicle: acetone 97 % of control

O=S1(=O)N=C(c2ccccc2)CC(c2ccccc2)N1 (stereo not drawn)
inactive: [11] 87 % of control | [12] 96 % of control | [3] 98 % of control | dose: 100.0 mg/kg/injection, schedule: Q01DX009 (ip), vehicle: saline with Tween-80 94 % of control | dose: 100.0 mg/kg/injection, schedule: Q04DX003 (ip), vehicle: saline with Tween-80 93 % of control | dose: 200.0 mg/kg/injection, schedule: Q01DX009 (ip), vehicle: saline with Tween-80 93 % of control | dose: 200.0 mg/kg/injection, schedule: Q04DX003 (ip), vehicle: saline with Tween-80 86 % of control

O=C(O)C1C2C=CC(C2)C1C(F)(F)C(F)(F)C(F)(F)F (stereo not drawn)
inactive: [13] 102 % of control | [14] 102 % of control | [15] 93 % of control

O=C(CF)[O][Sb]([O]C(=O)CF)([c]1ccccc1)([c]1ccccc1)[c]1ccccc1
inactive: dose: 5.0 mg/kg/injection, schedule: Q04DX003 (ip), vehicle: saline with Tween-80 92 % of control | dose: 10.0 mg/kg/injection, schedule: Q04DX003 (ip), vehicle: saline with Tween-80 101 % of control | dose: 20.0 mg/kg/injection, schedule: Q04DX003 (ip), vehicle: saline with Tween-80 106 % of control

NNP(=O)(N1CCCCC1)N1CCCCC1
inactive: [6] 90 % of control | [8] 97 % of control

Cc1nsc(N)n1
inactive: dose: 12.5 mg/kg/injection, schedule: Q01DX009 (ip), vehicle: saline 108 % of control | dose: 25.0 mg/kg/injection, schedule: Q01DX009 (ip), vehicle: saline 105 % of control | [10] 100 % of control | [5] 92 % of control | [16] 102 % of control | [7] 100 % of control | [17] 113 % of control | [9] 101 % of control | [18] 104 % of control

CC=NC(C)(C)C
inactive: dose: 12.5 mg/kg/injection, schedule: Q01DX009 (ip), vehicle: saline with Tween-80 91 % of control | [11] 94 % of control | [12] 95 % of control and 91 % of control

COC(=O)NS(=O)(=O)OC
inactive: dose: 100.0 mg/kg/injection, schedule: Q04DX002 (ip), vehicle: saline 103 % of control | dose: 200.0 mg/kg/injection, schedule: Q04DX002 (ip), vehicle: saline 110 % of control

CC1(C)OB(C(B2OC(C)(C)C(C)(C)O2)=C(CCl)CCl)OC1(C)C
inactive: [13] 101 % of control | [14] 88 % of control | [15] 103 % of control

CC1=C(C)CC2C(=O)C=CC(=O)C2C1 (stereo not drawn)
inactive: dose: 50.0 mg/kg/injection, schedule: Q01DX009 (ip), vehicle: water 97 % of control | dose: 100.0 mg/kg/injection, schedule: Q01DX009 (ip), vehicle: water 97 % of control and 101 % of control | dose: 100.0 mg/kg/injection, schedule: Q04DX003 (ip), vehicle: water 89 % of control | dose: 200.0 mg/kg/injection, schedule: Q01DX009 (ip), vehicle: water 95 % of control | dose: 200.0 mg/kg/injection, schedule: Q04DX003 (ip), vehicle: water 101 % of control

CCOc1ccccc1C1N(C)CCCN1C
inactive: dose: 6.25 mg/kg/injection, schedule: Q04DX003 (ip), vehicle: saline with Tween-80 99 % of control | [1] 100 % of control | [2] 99 % of control

O=C(Nc1ccccc1C(F)(F)F)N(CC(O)c1ccccc1)C1CCCCC1 (stereo not drawn)
inactive: [4] 106 % of control | dose: 200.0 mg/kg/injection, schedule: Q01DX009 (ip), vehicle: Klucel (hydroxypropylcellulose) (HPC) 95 % of control | dose: 400.0 mg/kg/injection, schedule: Q01DX009 (ip), vehicle: Klucel (hydroxypropylcellulose) (HPC) 100 % of control

O=C(Nc1ccc(C(=O)O)cc1)Nc1cc([N+](=O)[O-])ccc1F
inactive: [16] 92 % of control | [17] 94 % of control | [18] 94 % of control

Source: PubChem BioAssay AID248 (DTP/NCI, 2004)
